The results in this text go back to ChEMBL document CHEMBL3271985, “Partition coefficients and surface areas of some alkylbenzenes” (J Med Chem, 1976).

A short description of this data set: Octanol-water partition coefficient, log P of the compound.
`c1ccc2c(c1)CCCC2`: the logP is 3.52. To `c1ccc(C2CCCC2)cc1` belongs 4.27; to `c1ccc(C2CCCCC2)cc1`, 4.64.

The compound `c1ccc(C23CC4CC(CC(C4)C2)C3)cc1` yielded a log partition coefficient (logP) of 5.43. With `c1cc2ccc1CCc1ccc(cc1)CC2` the figure was 2.33; with `c1ccc2c(c1)CCC2`, 3.33. `CC(C)c1ccccc1` [ISOPROPYLBENZENE] displayed a logP of 3.66. Consider `Cc1cccc(C)c1` [M-XYLENE], for which the logP was 3.2.

The compound `Cc1ccccc1C` [O-XYLENE] came in with a lipophilicity (logP) of 3.12. With `Cc1ccc(C)cc1` [P-XYLENE] the figure was 3.15; with `CC(C)(C)c1ccccc1` [tert-Butylbenzene], 4.11.
